The values that follow come from ChEMBL document CHEMBL4177539, “Discovery of N-((3R,4R)-4-Fluoro-1-(6-((3-methoxy-1-methyl-1H-pyrazol-4-yl)amino)-9-methyl-9H-purin-2-yl)pyrrolidine-3-yl)acrylamide (PF-06747775) through Structure-Based Drug Design: A High Affinity Irreversible Inhibitor Targeting Oncogenic EGFR Mutants with Selectivity over Wild-Type EGFR” (J Med Chem, 2017).

Active and inactive are the calls of the source. No cut-off for these calls is given here. Some results are limits rather than exact numbers.

Data set [1] has as its system Rattus norvegicus. The experiment in a line: Toxicity in rat assessed as effect on heart rate administered as single dose. In kind it is organism-based. The settings on record: in vivo.
Data set [2] has as its target Proto-oncogene tyrosine-protein kinase ROS (Homo sapiens) (UniProt P08922). The experiment in a line: Inhibition of GST-tagged recombinant human ROS cytoplasmic domain (1883 to 2347 residues) expressed in Baculovirus expression system at 1 uM by FRET-based Z'-LYTE assay.
In data set [3] the target is CYP2C8 (Homo sapiens, UniProt P10632). The experiment in a line: Inhibition of human CYP2C8 at 10 uM. In kind it is ADME.
CYP2C8, sequence (P10632 whole entry, the tested form may be a part): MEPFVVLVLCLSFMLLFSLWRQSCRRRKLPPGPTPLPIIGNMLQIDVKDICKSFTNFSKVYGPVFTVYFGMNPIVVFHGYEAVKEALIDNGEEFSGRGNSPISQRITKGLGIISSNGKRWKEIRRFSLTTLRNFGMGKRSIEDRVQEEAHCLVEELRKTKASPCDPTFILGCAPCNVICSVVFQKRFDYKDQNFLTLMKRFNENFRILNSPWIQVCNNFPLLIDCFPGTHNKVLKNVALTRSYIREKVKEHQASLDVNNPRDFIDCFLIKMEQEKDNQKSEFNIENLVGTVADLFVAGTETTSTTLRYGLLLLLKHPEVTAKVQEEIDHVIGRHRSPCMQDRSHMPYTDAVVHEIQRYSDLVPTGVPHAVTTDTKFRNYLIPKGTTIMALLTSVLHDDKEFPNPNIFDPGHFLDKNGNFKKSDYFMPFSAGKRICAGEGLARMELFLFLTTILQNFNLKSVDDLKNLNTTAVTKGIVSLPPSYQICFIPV
Data set [4] concerns the target Tyrosine-protein kinase TXK (Homo sapiens) (UniProt P42681). The experiment in a line: Inhibition of GST-tagged full-length recombinant human TXK cytoplasmic domain expressed in Baculovirus expression system at 1 uM by FRET-based Z'-LYTE assay.
For data set [5], the system named is Rattus norvegicus. In words: Toxicity in rat assessed as body weight loss administered as repeated dosing for 91 days. The format is organism-based. Particulars: in vivo, 2184 h.
For data set [6], the system named is Rattus norvegicus. In words: Toxicity in rat assessed as effect on heart rate administered as repeated dosing. In kind it is organism-based. Particulars: in vivo.
Data set [7] can be described thus: Apparent intrinsic hepatic clearance in dog hepatocytes. The settings on record: read-out: CLH(app). In kind it is ADME, cell-based, Canis lupus familiaris, Hepatocyte.
For data set [8], the target named is Tyrosine-protein kinase Tec (Homo sapiens) (UniProt P42680). In words: Inhibition of His-tagged full-length recombinant human TEC cytoplasmic domain expressed in Baculovirus expression system at 1 uM by FRET-based Z'-LYTE assay.
Tyrosine-protein kinase Tec (Homo sapiens), sequence (P42680 whole entry, the tested form may be a part): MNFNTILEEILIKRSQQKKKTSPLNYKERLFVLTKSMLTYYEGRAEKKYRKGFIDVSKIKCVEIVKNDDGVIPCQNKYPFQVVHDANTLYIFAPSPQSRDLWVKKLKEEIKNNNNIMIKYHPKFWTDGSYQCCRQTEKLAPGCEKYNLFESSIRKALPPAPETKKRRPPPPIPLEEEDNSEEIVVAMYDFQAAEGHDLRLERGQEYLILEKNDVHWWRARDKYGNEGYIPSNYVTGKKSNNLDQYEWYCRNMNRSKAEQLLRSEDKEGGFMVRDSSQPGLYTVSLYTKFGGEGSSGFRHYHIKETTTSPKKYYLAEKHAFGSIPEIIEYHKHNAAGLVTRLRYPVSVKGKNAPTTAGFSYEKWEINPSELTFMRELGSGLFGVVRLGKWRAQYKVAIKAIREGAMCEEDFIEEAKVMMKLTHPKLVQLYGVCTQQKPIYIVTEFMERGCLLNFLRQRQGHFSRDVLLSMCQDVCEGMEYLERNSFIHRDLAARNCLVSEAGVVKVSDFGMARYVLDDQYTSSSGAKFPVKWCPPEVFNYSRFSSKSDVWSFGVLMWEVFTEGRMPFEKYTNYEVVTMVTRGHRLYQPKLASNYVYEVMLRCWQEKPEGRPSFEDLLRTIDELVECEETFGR
For data set [9], the system named is Canis familiaris. In words: Toxicity in dog assessed as effect on blood pressure administered as repeated dosing. Particulars: in vivo. The format is organism-based, Canis lupus familiaris.
The nature of data set [10]: Volume of distribution at steady state in Beagle dog at 1 mg/kg, iv administered as single dose. In kind it is ADME, organism-based, Canis lupus familiaris. The settings on record: in vivo, read-out: Vdss.
Data set [11] can be described thus: Terminal half life in Nu/Nu mouse at 1 mg/kg, iv administered as single dose. In kind it is ADME, organism-based. The settings on record: in vivo, read-out: beta t1/2 (converted).
Data set [12] concerns Canis familiaris. The experiment in a line: Toxicity in dog assessed as electrocardiogram changes administered as repeated dosing. In kind it is organism-based, Canis lupus familiaris. Particulars: in vivo.
The target of data set [13] is Activated CDC42 kinase 1 (Homo sapiens) (UniProt Q07912). The experiment in a line: Inhibition of GST-tagged recombinant human ACK catalytic domain (110 to 476 residues) expressed in Baculovirus expression system at 1 uM by FRET-based Z'-LYTE assay.
Activated CDC42 kinase 1 (Homo sapiens), sequence (Q07912 whole entry, looked up, the tested form may be a part): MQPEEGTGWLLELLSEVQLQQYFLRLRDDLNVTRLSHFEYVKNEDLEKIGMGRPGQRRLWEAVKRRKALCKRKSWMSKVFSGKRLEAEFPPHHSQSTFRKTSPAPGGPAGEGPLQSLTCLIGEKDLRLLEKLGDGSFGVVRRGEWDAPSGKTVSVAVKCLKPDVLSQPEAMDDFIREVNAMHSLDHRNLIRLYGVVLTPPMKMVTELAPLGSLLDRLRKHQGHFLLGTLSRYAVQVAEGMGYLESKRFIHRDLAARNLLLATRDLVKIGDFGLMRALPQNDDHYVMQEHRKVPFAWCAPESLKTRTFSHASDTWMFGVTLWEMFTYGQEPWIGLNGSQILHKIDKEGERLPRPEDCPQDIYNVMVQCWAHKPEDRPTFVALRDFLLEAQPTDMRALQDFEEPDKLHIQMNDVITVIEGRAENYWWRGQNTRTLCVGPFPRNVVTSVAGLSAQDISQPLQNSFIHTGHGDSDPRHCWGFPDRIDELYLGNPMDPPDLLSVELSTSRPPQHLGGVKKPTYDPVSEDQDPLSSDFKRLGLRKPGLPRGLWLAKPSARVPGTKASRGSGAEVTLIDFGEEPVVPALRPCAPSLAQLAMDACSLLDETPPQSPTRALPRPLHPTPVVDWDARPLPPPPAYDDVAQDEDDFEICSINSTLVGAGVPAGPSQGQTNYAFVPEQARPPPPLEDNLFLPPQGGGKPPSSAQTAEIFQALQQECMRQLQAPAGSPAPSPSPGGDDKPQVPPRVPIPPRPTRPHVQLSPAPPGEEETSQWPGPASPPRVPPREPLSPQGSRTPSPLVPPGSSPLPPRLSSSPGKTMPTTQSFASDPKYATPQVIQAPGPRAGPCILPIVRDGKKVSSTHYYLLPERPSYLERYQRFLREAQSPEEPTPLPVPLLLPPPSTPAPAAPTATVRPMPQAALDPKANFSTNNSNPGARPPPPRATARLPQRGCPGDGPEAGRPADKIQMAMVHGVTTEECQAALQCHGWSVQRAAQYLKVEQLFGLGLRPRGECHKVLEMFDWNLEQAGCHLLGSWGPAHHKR
Data set [14] can be described thus: physchem. The settings on record: octanol/water.
The nature of data set [15]: Half life in Beagle dog blood at 1 uM by LC-MS/MS analysis. The format is ADME, tissue-based, Canis lupus familiaris.
The nature of data set [16]: Oral bioavailability in Nu/Nu mouse at 1 mg/kg administered as single dose. In kind it is ADME, organism-based. The settings on record: in vivo.
Data set [17] addresses Tyrosine-protein kinase Fer (Homo sapiens) (UniProt P16591). In words: Inhibition of GST-tagged recombinant human FER catalytic domain (541 to 822 residues) expressed in Baculovirus expression system at 1 uM by FRET-based Z'-LYTE assay.

Proto-oncogene tyrosine-protein kinase ROS (Homo sapiens), sequence (P08922 whole entry, the tested form may be a part): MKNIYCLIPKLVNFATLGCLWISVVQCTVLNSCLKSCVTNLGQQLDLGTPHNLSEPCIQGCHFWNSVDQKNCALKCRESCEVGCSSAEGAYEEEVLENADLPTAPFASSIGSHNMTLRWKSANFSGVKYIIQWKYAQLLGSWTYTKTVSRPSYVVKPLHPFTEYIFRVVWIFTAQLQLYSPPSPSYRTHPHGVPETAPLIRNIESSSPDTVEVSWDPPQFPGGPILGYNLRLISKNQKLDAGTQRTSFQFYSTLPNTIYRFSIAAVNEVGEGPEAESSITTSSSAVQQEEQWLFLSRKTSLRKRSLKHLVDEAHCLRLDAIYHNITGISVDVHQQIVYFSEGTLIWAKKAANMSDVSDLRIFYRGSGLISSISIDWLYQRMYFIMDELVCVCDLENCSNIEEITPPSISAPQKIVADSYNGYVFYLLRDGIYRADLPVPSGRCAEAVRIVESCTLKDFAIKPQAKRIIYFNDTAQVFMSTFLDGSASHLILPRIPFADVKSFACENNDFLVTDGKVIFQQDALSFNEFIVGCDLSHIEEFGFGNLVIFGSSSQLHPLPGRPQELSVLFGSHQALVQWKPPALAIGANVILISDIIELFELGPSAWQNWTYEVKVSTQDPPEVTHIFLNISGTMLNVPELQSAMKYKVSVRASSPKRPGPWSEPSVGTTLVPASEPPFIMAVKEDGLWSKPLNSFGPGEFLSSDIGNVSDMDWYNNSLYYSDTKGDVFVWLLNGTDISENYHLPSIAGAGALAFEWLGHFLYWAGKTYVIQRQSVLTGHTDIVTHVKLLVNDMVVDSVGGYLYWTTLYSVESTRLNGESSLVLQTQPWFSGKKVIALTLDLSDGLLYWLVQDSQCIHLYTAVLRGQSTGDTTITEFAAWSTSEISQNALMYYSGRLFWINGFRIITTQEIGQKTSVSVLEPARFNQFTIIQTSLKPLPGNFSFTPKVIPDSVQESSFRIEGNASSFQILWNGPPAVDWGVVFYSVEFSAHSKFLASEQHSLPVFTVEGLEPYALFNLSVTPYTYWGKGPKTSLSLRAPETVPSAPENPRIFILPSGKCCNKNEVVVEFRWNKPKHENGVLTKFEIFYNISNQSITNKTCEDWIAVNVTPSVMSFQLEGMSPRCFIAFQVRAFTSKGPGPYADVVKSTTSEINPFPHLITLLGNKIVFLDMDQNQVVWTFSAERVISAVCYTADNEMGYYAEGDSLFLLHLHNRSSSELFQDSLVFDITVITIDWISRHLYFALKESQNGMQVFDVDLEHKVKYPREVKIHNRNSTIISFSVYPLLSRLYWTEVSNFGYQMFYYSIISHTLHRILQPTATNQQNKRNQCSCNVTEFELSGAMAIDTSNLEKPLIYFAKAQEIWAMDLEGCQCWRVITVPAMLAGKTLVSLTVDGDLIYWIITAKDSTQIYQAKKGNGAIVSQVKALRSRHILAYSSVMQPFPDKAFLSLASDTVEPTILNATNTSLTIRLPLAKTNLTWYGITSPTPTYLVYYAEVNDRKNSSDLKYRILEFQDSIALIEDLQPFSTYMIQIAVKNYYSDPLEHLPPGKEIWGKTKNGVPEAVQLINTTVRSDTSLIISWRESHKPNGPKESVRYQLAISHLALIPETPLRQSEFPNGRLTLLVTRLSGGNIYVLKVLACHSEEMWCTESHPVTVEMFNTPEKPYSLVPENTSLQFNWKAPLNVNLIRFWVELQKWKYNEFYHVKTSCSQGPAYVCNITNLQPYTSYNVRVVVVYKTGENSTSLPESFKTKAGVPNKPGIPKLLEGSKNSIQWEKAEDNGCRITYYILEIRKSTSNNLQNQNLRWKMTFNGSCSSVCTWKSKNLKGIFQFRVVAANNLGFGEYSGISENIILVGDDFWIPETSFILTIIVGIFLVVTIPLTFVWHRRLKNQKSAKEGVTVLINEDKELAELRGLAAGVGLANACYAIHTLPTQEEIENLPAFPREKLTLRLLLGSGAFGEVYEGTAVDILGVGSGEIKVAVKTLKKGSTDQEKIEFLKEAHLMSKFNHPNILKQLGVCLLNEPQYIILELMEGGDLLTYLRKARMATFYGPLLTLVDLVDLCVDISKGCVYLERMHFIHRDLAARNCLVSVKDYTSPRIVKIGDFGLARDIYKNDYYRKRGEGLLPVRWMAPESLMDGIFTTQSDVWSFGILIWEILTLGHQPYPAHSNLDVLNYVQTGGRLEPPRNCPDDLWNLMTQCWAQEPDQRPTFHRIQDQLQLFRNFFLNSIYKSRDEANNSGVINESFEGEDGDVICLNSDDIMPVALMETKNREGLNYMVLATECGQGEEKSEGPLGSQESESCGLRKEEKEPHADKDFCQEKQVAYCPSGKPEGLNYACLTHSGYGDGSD
Tyrosine-protein kinase TXK (Homo sapiens), sequence (P42681 whole entry, the tested form may be a part): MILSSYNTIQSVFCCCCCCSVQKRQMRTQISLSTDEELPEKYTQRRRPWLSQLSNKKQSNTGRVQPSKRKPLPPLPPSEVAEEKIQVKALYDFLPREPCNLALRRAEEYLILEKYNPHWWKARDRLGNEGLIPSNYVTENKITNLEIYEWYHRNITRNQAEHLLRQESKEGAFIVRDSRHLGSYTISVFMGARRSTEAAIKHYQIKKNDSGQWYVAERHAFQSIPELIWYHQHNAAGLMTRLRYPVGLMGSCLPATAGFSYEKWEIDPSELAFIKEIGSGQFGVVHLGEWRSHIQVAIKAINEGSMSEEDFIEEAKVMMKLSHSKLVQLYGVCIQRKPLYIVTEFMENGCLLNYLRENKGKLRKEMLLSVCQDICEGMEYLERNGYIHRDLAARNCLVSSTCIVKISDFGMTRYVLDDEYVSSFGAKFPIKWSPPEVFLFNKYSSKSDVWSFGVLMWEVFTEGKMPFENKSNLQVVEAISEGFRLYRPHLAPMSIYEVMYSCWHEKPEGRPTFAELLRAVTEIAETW

`C=CC(=O)N[C@@H]1CN(c2nc(Nc3cn(C)nc3OC)c3ncn(C)c3n2)C[C@H]1F` [MAVELERTINIB]: the Activity result in [1], in [5], in [6], in data set [9] and in [12] was “Non-Toxic” throughout. The inhibition in [2], in data set [4], in data set [8] and in data set [13] was above 50% in each case. For the same compound, the inhibition at 10 µM in data set [3] is below 30%. The CLint scaled in [7] is 17 mL/min/kg. In addition, the Vd in data set [10] turned out to be 0.94 L/kg. Besides, in data set [11], the half-life was 0.56 h. The logD in data set [14] is 2. The compound further had a half-life at 1 µM in data set [15] of 4.65 h. For the same compound, the bioavailability in data set [16] was 60%. Moreover, the inhibition entry in [17] was “Active”.

For orientation: inhibition means the drop in the measured response relative to a control, in per cent. Broadly, the logD is the decadic logarithm of the distribution of all forms, ionised or not, between an organic phase and buffer at a given pH. What is called bioavailability is the share of a dose that reaches the circulation, judged against a reference dose that is usually intravenous. A higher bioavailability goes with much systemic uptake.
